Tested on: Methicillin Resistant Staphylococcus aureus (NRS 384/USA 300)
Assay: Deep partial thickness biofilm prevention porcine wound model, MRSA
Format: in vivo
Description: The animals were prepared as described (above). Ninety-six (96) rectangular wounds measuring 10 mm×7 mm×0.5 mm deep were made in the paravertebral and thoracic area with a specialized electrokeratome fitted with a 7 mm blade. The wounds were separated from one another by 15 mm of unwounded skin and individually dressed. The wounds were then inoculated and treated. A fresh culture of Acinetobacter baumannii ATCC 19606 or Methicillin Resistant Staphylococcus aureus (NRS 384/USA 300) was used in these studies. The challenge inoculum suspension was prepared by scraping the overnight growth from a culture plate into 5 ml of normal saline. […] Serial dilutions were made until a concentration of 10^6 CFU/ml was achieved. […] In addition, serial dilutions of the suspension were plated onto selective media and the plates were incubated aerobically overnight (16-24 hours) at 37° C., in order to quantify the exact concentration of viable organisms used for this experiment. […]
Twelve (12) wounds were recovered from each treatment group on each assessment day (days 3 and 4). […] Serial dilutions were made from all culture samples, and the extent of microbiological contamination was assessed using the Spiral Plater System (Spiral Biotech, Norwood, Mass.). […] All plates were incubated aerobically overnight 24 hours at 37° C., after which time the number of viable colonies were counted.

C/C(=C\C(=O)OCCCCCCCCC(=O)O)C[C@@H]1OC[C@H](C[C@@H]2O[C@H]2[C@@H](C)[C@H](C)O)[C@@H](O)[C@H]1O [mupirocin]
biofilm infection at day 3 compared to day 4 (MRSA) (across treatment days): significant reduction in biofilm infection | biofilm infection (MRSA) (days 3 and 4): significantly reduced biofilm infection

Reference: US11433092B2, “Compositions and methods of use for wound healing” (SYNEDGEN, INC., priority 2013, dated 2022)
